Measurements as given in article PMC10254045, “Elaboration of the Effective Multi-Target Therapeutic Platform for the Treatment of Alzheimer’s Disease Based on Novel Monoterpene-Derived Hydroxamic Acids” (International Journal of Molecular Sciences, 2023).
Where two headings read alike, the source gives them in different places.

Assays:
[1] = biological target: T1, HDAC6 (Homo sapiens, UniProt Q9UBN7); experiment: Fluorimetric measurement of HDAC6 activity (FLUOR DE LYS kit); type: biochemical; settings: for ability to inhibit the enzymatic activity of HDAC6: in words
T1 construct: purchased Enzo Life Sciences
T1 sequence (Q9UBN7 1-1215): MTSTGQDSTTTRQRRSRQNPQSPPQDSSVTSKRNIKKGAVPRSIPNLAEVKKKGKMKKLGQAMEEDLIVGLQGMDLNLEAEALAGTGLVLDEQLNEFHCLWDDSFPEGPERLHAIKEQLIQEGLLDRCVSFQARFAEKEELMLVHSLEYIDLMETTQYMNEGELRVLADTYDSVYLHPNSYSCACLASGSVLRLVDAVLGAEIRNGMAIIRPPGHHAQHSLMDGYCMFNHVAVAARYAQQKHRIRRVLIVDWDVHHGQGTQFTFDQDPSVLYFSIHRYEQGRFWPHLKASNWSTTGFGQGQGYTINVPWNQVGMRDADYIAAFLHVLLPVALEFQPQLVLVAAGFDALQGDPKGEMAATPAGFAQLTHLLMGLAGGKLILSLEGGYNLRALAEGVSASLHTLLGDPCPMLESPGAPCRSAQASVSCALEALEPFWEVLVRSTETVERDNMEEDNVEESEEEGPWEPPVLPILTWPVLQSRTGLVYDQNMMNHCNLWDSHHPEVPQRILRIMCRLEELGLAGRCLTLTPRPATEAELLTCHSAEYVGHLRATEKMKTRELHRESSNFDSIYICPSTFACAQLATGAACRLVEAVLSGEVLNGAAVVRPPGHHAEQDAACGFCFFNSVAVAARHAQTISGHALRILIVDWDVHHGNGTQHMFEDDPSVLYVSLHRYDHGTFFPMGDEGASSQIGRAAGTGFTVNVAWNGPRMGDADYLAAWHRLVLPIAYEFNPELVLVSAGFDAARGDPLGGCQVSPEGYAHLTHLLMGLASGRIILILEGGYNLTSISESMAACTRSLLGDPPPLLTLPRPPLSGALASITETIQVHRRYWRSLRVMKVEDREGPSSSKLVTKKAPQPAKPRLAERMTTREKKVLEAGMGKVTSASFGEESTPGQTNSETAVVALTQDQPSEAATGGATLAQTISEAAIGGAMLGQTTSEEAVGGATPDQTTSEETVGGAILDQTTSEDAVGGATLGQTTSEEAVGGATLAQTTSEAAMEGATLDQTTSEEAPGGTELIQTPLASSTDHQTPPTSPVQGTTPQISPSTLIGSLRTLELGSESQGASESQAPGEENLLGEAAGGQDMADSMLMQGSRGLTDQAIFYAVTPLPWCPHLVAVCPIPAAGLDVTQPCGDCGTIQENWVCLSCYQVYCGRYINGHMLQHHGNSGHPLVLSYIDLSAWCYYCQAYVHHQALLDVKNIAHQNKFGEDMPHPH

[2] = DPPH radical scavenging activity; settings: Trolox equivalent; compounds and Trolox 100 µM
Text: (§1) DPPH is a stable chromogen radical, which is widely used to assess the antioxidant activity of biological objects, in particular when searching for potential therapeutic agents used to maintain the redox balance in the body and treat pathologies associated with the action of free radicals. In turn, the oxygen radical absorbance capacity (ORAC) analysis is based on the removal by potential antioxidants of peroxyl radicals generated by AAPH (2,2’-axobis-2-methyl-propanimidamide, dihydrochloride), preventing the degradation of the fluorescein probe.
The measurement of the antiradical activity of synthesized hydroxamic acids was carried out using the method described in [150]. The studied compounds were introduced into the wells of a 96-well black tablet (the final concentration was 100 microns), after which a freshly prepared solution of 2,2-diphenyl-1-picrylhydrazyl (Sigma Aldrich, St. Louis, Missouri, USA) was added. After the incubation time had elapsed, the DPPH radical-scavenging activity was measured using a multifunctional Cytation™3 tablet analyzer (BioTek Instruments, Inc., Winooski, VT, USA) at λ = 517 nm by the difference in the reduction of the DPPH radical peak between control samples containing an equivalent volume of solvent and samples with the substances under study.

[3] = Oxygen radical absorbance capacity (ORAC); settings: Trolox equivalent; compounds and Trolox 100 µM, AAPH 12 mM
Text: as §1
The analysis of the absorption capacity of oxygen radicals was performed as described in [151], with some modifications. Trolox (Sigma Aldrich, St. Louis, MI, USA) was used as a standard antioxidant. The studied compounds were introduced into the holes of a 96-hole black tablet with a transparent bottom with Trolox (25 µL; the final concentration was 100 µM) and fluorescein (150 µL; the final concentration was 80 nM, Sigma Aldrich, St. Louis, MI, USA). The resulting mixture was shaken and incubated for 30 min at 37 °C. After a 30-min incubation period, a solution of 2,2’-azobis (2-amidinopropane) dihydrochloride (AAPH) (25 µL; final concentration of 12 mM, Sigma Aldrich, St. Louis, MI, USA) was quickly introduced into all wells of the tablet. The tablet was immediately placed in a multifunctional tablet analyzer Cytation™ 3 (BioTek Instruments, Inc., Winooski, VT, USA). The fluorescence intensity was recorded for 300 min at λex = 480 nm, λem = 520 nm with an interval of every 5 min. In the same experiment, calibration solutions for the reference antioxidant Trolox were used to confirm the validity of the use of this method (0, 6.25, 12.5, 25, 50 and 100 µM).

[4] = biological target: T2, β-amyloid peptide 1-42 (Aβ1-42) (Homo sapiens, UniProt P05067); experiment: Thioflavin T fluorescent analysis of Aβ1-42 aggregation; type: biochemical; settings: 48 h, compounds 100 µM, Thioflavin T 10 µM, 48 h registration; read-out: prevention of the aggregation of Aβ1-42
T2 construct: the pathological form of β-amyloid peptide 1-42 (Sigma Aldrich); purchased Sigma Aldrich
Text: The aggregation process of β-amyloid peptide 1-42 (Aβ1-42), caused by hydrophobic interactions of peptide monomers and, as a consequence, the formation of the most toxic polymorphic structure-oligomeric fragments of Aβ, was detected using the fluorescent dye Thioflavin T (Figure 4a). This method is the most widely used for selective staining and the identification of amyloid aggregates, which is confirmed by a large number of works. Fluorescence analysis using Thioflavin T made it possible to monitor the aggregation process of the pathological form of β-amyloid peptide 1-42 (Sigma Aldrich, St. Louis, MI, USA). The experimental protocol was carried out similarly to that described in [58] with some modifications. The registration of changes in the fluorescence of thioflavin T (10 µM, Sigma Aldrich, St. Louis, MI, USA) was performed on a multifunctional tablet analyzer Cytation™3 (BioTek Instruments, Inc., Winooski, VT, USA) at λex = 450 nm, λem = 480 nm. The fluorescence intensity of the solution without Aβ1-42 was subtracted from the fluorescence values of solutions containing protein, due to the need to subtract the background fluorescence.

[5] = Cell viability, MTT test; type: cell-based; settings: human, SH-SY5Y neuroblastoma cells, 24-h exposure, read-out: IC50 cytotoxic action
Protocol: The culture of human neuroblastoma cells (defined as SH-SY5Y) was cultured in DMEM with the addition of embryonic bovine serum (10%), 2 mM glutamine (DiaM, Moscow, Russia) and penicillin-streptomycin (100 U/Ml–100 µg/mL, PanEco, Moscow, Russia) in conditions of 5% CO2 in the air at 37 °C. Upon reaching 80% confluence, cells in the amount of 1 × 10^4 were placed in 96-well transparent plates and incubated under the same conditions for 24 h. After the incubation time, the cells were exposed to a 24-h exposure to various concentrations of hydroxamic acids dissolved in dimethyl sulfoxide (range from 1 to 100 µM). An equivalent volume of solvent was used as a control (final DMSO content = 1%).
Cell survival analysis was performed using MTT test. To do this, 3-(4,5-dimethylthiazol-2-yl)-2,5-diphenyltetrazolium bromide (MTT, 5 mg/mL, DiaM, Moscow, Russia) was introduced into all wells and incubated at 37 °C for 2 h to restore metabolically active cells of the yellow tetrazolium salt MTT to purple formazane crystals. The resulting formazane was then re-suspended in 200 µL DMSO per well. The optical density was recorded using a multifunctional Cytation™3 flatbed analyzer (BioTek Instruments, Inc., Winooski, VT, USA) at λ = 530 nm.

[6] = Table 1, read-out: HDAC6-Inhibitory Effect, IC50

T2 sequence (P05067 672-713 limits assumed): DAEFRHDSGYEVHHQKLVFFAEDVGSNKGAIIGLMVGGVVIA

| Structure (SMILES) | IC50 ([1]; HDAC6, values as listed in Table S1 beside docking score, read-out: IC50) [µM] | DPPH value (TE) [2] [TE] | ORAC value (TE) [3] [TE] | inhibition at 100 µM [4] [%] | IC50 at 24 h [5] [µM] | melting point [°C] | IC50 [1, 6] [µM] | ability to inhibit the enzymatic activity of HDAC6 [1] |
| --- | --- | --- | --- | --- | --- | --- | --- | --- |
| CC1(C)[C@H]2CC[C@@H](CNC(=O)c3ccc(/C=C/C(=O)NO)cc3)[C@@H]1C2 [Compound 38c, N-(((1S,2R,5S)-6,6-dimethylbicyclo[3.1.1]heptan-2-yl)methyl)-4-((E)-3-(hydroxyamino)-3-oxoprop-1-en-1-yl)benzamide] | 8.03 | 0.70 | 1.02 | ≤ 40 | 90.5 ± 2.9 | 108.6 | – | – |
| CC1(C)[C@H]2CC[C@@H](CNC(=O)/C=C/c3ccc(C(=O)NO)cc3)[C@@H]1C2 [Compound 35c, 4-((E)-3-((((1S,2R,5S)-6,6-dimethylbicyclo[3.1.1]heptan-2-yl)methyl)amino)-3-oxoprop-1-en-1-yl)-N-hydroxybenzamide] | – | 0.71 | 1.02 | ≤ 40 | 86.7 ± 1.45 | 139.5 to 141.4 | 6.9 ± 0.43 | – |
| C=C(C)[C@@H]1CC=C(CNC(=O)CCCCCCC(=O)NO)CC1 [Compound 30, (S)-N1-Hydroxy-N8-((4-(prop-1-en-2-yl)cyclohex-1-en-1-yl)methyl)octanediamide] | – | 0.25 | 0.87 | ≤ 40 | > 100 | 113.5 to 116 | 0.56 ± 0.01 | – |
| CC(C)CCCC(C)CC(=O)NO (stereo not shown) [Compound 8, N-Hydroxy-3,7-dimethyloctanamide] | – | 0.36 | 0.83 | – | > 100 | – | > 100 | no significant ability |
| CC(C)=CCCC(C)CC(=O)NO (stereo not shown) [Compound 10, N-Hydroxy-3,7-dimethyloct-6-enamide] | – | 0.19 | 0.84 | – | > 100 | – | > 100 | no significant ability |
| CC(C)c1ccc(CNC(=O)c2ccc(/C=C/C(=O)NO)cc2)cc1 [Compound 38b, (E)-4-(3-(hydroxyamino)-3-oxoprop-1-en-1-yl)-N-(4-isopropylbenzyl)benzamide] | – | 0.79 | 1.04 | 63.9 | > 100 | 160.3 to 164.9 | 4.78 ± 0.04 | – |
| CC1(C)[C@@H]2CC=C(C(=O)NO)[C@H]1C2 [(+)-19, (1S,5R)-N-Hydroxy-6,6-dimethylbicyclo [3.1.1]hept-2-ene-2-carboxamide] | – | 0.50 | 1.02 | – | > 100 | – | > 100 | no significant ability |
| CC1(C)[C@H]2CC=C(C(=O)NO)[C@@H]1C2 [(-)-19, (1R,5S)-N-Hydroxy-6,6-dimethylbicyclo [3.1.1]hept-2-ene-2-carboxamide] | – | 0.15 | 0.85 | – | > 100 | – | > 100 | no significant ability |
| C=C(C)[C@@H]1CC=C(C(=O)NO)CC1 [Compound 16, (S)-N-Hydroxy-4-(prop-1-en-2-yl)cyclohex-1-enecarboxamide] | – | 0.23 | 0.87 | – | > 100 | – | 87.4 ± 2.33 | no significant ability |
| CC1=CC[C@H](CC(=O)NO)C1(C)C [(-)-13, (R)-N-Hydroxy-2-(2,2,3-trimethylcyclopent-3-en-1-yl)acetamide] | – | 0.39 | 0.93 | – | > 100 | – | > 100 | no significant ability |
| CC(CCCC(C)(C)O)CC(=O)NO (stereo not shown) [Compound 5, N,7-dihydroxy-3,7-dimethyloctanamide] | – | 0.17 | 0.88 | – | > 100 | – | > 100 | no significant ability |
| CC1=CC[C@@H](CC(=O)NO)C1(C)C [(+)-13, (S)-N-Hydroxy-2-(2,2,3-trimethylcyclopent-3-en-1-yl)acetamide] | – | 0.26 | 0.94 | – | > 100 | – | > 100 | no significant ability |
